Data taken from patent US6559167B1, “Prodrugs of proton pump inhibitors” (Regents of the University of California, priority 1998, dated 2003).
“And” between values parts separate entries of the source, which are not always exact repeats. Equal entries are not always repeated.

Tests used:
[1] = Chemical stability: hydrolysis half-life in buffer solution at various pH; assay type: physicochemical
Excerpt: By way of concrete examples, the following tests and results are described. […] This is consistent with the knowledge that the compounds obtained by hydrolysis e. g. LANSOPRAZOLE, OMEPRAZOLE, PANTOPRAZOLE and RABEPRAZOLE are well known H,K-ATPase inhibitors. […] Another good example is 2-(2-carbamoylmethoxy-4-{2-[4-(3-methoxypropoxy)-3-methyl pyridin-2-yl methylsulfinyl]benzimidazole-1-sulfonyl}phenoxy)acetamide. The half life of this compound dependes on pH. […] Based on these measured characteristics the compound 2-(2-carbamoylmethoxy-4-{2-[4-(3-methoxypropoxy)-3-methyl pyridin-2-yl methylsulfinyl]benzimidazole-1-sulfonyl}phenoxy)acetamide is expected to be well absorbed, and slowly release the parent RABEPRAZOLE in the blood, resulting in long-lasting in vivo activity. This compound can also be administered intravenously in an aqueous solution at pH 7.4 which solution may include 2-hydroxypropyl-β-cyclodextrin.
The chemical stability of the compounds of the invention has been followed kinetically at low concentration at 37° C. in a buffer solution composed of 0.2M NaCl, 50 mM sodium phosphate, pH 7.4, 2% bovine albumin serum, 5-10% methanol.
The hydrolysis of 2-(2-carbamoylmethoxy-4-{2-[4-(3-methoxy-propoxy)-3-methyl-pyridin-2-ylmethanesulfinyl]-benzimidazole-1-sulfonyl}-phenoxy)-acetamide was measured at various pH.

[2] = test system: gastric acid secretion of the conscious male rat; experiment: Inhibitory effect on gastric acid secretion of the conscious male rat at timed intervals after oral administration; assay type: in vivo; set-up: inhibition of gastric acid secretion: concentration or dose not given beside the values; settings: for inhibition of gastric acid secretion: after 5 hr of oral administration; for % inhibition of gastric acid secretion: male rat
[3] = Relative plasma concentration of OMEPRAZOLE in male rat after oral administration; settings: male rat;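 further: Sprague-Dawley rats fasted one day with water available, dosed orally with prodrug compounds, OMEPRAZOLE quantified by HPLC in plasma from serial blood draws, control given OMEPRAZOLE itself orally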
Procedure: Male adult rats of the Sprague-Dawley strain were used for determining the concentration of OMEPRAZOLE in the plasma. All rats were derived of food but not of water for one day. Examples of compounds of the invention (2 mg/kg of rat weight) were orally administrated to male rats (weighing 250 g to 270 g) and blood samples (0.3 ml) were taken at timed intervals. Blood samples were centrifuged and plasma was taken out. Plasma was extracted with 0.5 ml of dichloromethane. Dichloromethane layer was evaporated by nitrogen/air blowing. The residual materials were dissolved in 0.5 ml of 40% acetonitrile in 10 mM phosphate buffer (pH 7.4). Amounts of OMEPRAZOLE were determined by HPLC analysis. As a control, OMEPRAZOLE (4 mg/kg of rat weight) was orally administrated.

[4] = test system: gastric acid secretion (histamine-stimulated acid output), pylorus-ligated male rats; experiment: Initial inhibition of gastric acid secretion after intraduodenal administration to pylorus-ligated rats; assay type: in vivo; settings: 10 μmole/kg, after pylorus ligation, histamine 30 mg/kg s.c., acid output over four hours, rat
Procedure: Histamine (30 mg/kg) was subcutaneously injected to stimulate acid production. The abdomen was surgically closed immediately. Four hours later the esophagus was ligated and the stomach was removed. Acid output was measured as described above.

[5] = between 4-7 hr after oral administration
[6] = 20 min after oral administration, examples 2 mg/kg, OMEPRAZOLE 4 mg/kg
[7] = 40 min after oral administration, examples 2 mg/kg, OMEPRAZOLE 4 mg/kg
[8] = 60 min after oral administration, examples 2 mg/kg, OMEPRAZOLE 4 mg/kg
[9] = 80 min after oral administration, examples 2 mg/kg, OMEPRAZOLE 4 mg/kg
[10] = 100 min after oral administration, examples 2 mg/kg, OMEPRAZOLE 4 mg/kg
[11] = 120 min after oral administration, examples 2 mg/kg, OMEPRAZOLE 4 mg/kg
[12] = 140 min after oral administration, 2 mg/kg
[13] = 160 min after oral administration, 2 mg/kg
[14] = 180 min after oral administration, 2 mg/kg
[15] = 210 min after oral administration, 2 mg/kg
[16] = 240 min after oral administration, 2 mg/kg
[17] = 270 min after oral administration, 2 mg/kg
[18] = 300 min after oral administration, 2 mg/kg
[19] = 330 min after oral administration, 2 mg/kg
[20] = 360 min after oral administration, 2 mg/kg
[21] = between 5.5-8.5 hours after oral administration, 10 μmole/kg, histamine and carbachol stimulated
[22] = between 5-8 hours after oral administration, 10 μmole/kg, histamine and carbachol stimulated

COCCCOc1ccnc(C[S+]([O-])c2nc3ccccc3n2S(=O)(=O)c2ccc(OCC(N)=O)c(OCC(N)=O)c2)c1C (stereo not shown) [Example 77, 2-(2-carbamoylmethoxy-4-{2-[4-(3-methoxypropoxy)-3-methylpyridin-2-ylmethylsulfinyl]benzimidazole-1-sulfonyl}phenoxy)acetamide]
half-life of hydrolysis ([1]; 2 mg/mL, pH 7.4): 3.73 h | half-life ([1]; bovine, pH 7.4, half-life of hydrolysis): ~22.2 h | half-life of hydrolysis ([1]; buffer, pH 2): 1.8 h | half-life ([1]; buffer, pH 2, half-life of hydrolysis): ~1.8 h | half-life of hydrolysis ([1]; buffer, pH 8): 10.7 h | half-life ([1]; buffer, pH 8, half-life of hydrolysis): ~10.7 h | half-life at 2 mg/mL ([1]; pH 7.4, half-life of hydrolysis): ~3.7 h | inhibition of gastric acid secretion [2]: 56% | % inhibition of gastric acid secretion [2, 5]: 56%

Cc1c(OCC(F)(F)F)ccnc1C[S+]([O-])c1nc2ccccc2n1S(=O)(=O)c1ccc(OCC(N)=O)c(OCC(N)=O)c1 (stereo not shown) [Example 79, 2-(2-Carbamoylmethoxy-4-{2-[3-methyl-4-(2,2,2-trifluoro-ethoxy)-pyridin-2-ylmethanesulfinyl]-benzimidazole-1-sulfonyl}-phenoxy)-acetamide]
% inhibition of gastric acid secretion [2, 5]: 36.8%

1-[4-[3-(morpholin-4-yl) propoxy]benzenesulfonyl]-5-methoxy-2-[[(3,5-dimethyl-4-methoxy-2-pyridyl)methyl]sulfinyl]-1H-benzimidazole and 1-[4-[3-(morpholin-4-yl) propoxy]benzenesulfonyl]-6-methoxy-2-[[(3.5-dimethyl-4-methoxy-2-pyridyl)methyl]sulfinyl]-1H-benzimidazole [Example 37]
Relative concentration of OMEPRAZOLE released in the plasma [3, 6]: 1.67 arbitrary unit | Relative concentration of OMEPRAZOLE released in the plasma [3, 7]: 14.36 arbitrary unit | Relative concentration of OMEPRAZOLE released in the plasma [3, 8]: 3.5 arbitrary unit | Relative concentration of OMEPRAZOLE released in the plasma [3, 9]: 1.88 arbitrary unit | Relative concentration of OMEPRAZOLE released in the plasma [3, 10]: 1.88 arbitrary unit | Relative concentration of OMEPRAZOLE released in the plasma [3, 11]: 1.5 arbitrary unit | Relative concentration of OMEPRAZOLE released in the plasma [3, 12]: 1.5 arbitrary unit | Relative concentration of OMEPRAZOLE released in the plasma [3, 13]: 1 arbitrary unit | Relative concentration of OMEPRAZOLE released in the plasma [3, 14]: 1 arbitrary unit | Relative concentration of OMEPRAZOLE released in the plasma [3, 15]: 0.7 arbitrary unit | Relative concentration of OMEPRAZOLE released in the plasma [3, 16]: 0.7 arbitrary unit | Relative concentration of OMEPRAZOLE released in the plasma [3, 17]: 0.7 arbitrary unit | Relative concentration of OMEPRAZOLE released in the plasma [3, 18]: 0.4 arbitrary unit | Relative concentration of OMEPRAZOLE released in the plasma [3, 19]: 0.2 arbitrary unit | Relative concentration of OMEPRAZOLE released in the plasma [3, 20]: 0.1 arbitrary unit | Relative concentration of OMEPRAZOLE released in the plasma ([3]; 390 min after oral administration, 2 mg/kg): 0.1 arbitrary unit

N-(carbamoylmethyl)-2-{4-[(5-methoxy-2-{[(3,5-dimethyl-4-methoxy-2-pyridyl)methyl]sulfinyl}benzimidazol-1-yl)sulfonyl]phenoxy}acetamide and N-(carbamoylmethyl)-2-{4-[(6-methoxy-2-{[(3.5-dimethyl-4-methoxy-2-pyridyl)methyl]sulfinyl}benzimidazol-1-yl)sulfonyl]phenoxy}acetamide [Example 62]
% inhibition of gastric acid secretion [2, 21]: 14.1 ± 7.5%

N-[4-[[5-methoxy-2-[[(3,5-dimethyl-4-methoxy-2-pyridyl)methyl]sulfinyl]benzimidazol-1-yl]sulfonyl]phenyl]urea and N-[4-[[6-methoxy-2-[[(3,5-dimethyl-4-methoxy-2-pyridyl)methyl]sulfinyl]benzimidazol-1-yl]sulfonyl]phenyl]urea [Example 29]
Relative concentration of OMEPRAZOLE released in the plasma [3, 6]: 4.5 arbitrary unit | Relative concentration of OMEPRAZOLE released in the plasma [3, 7]: 14 arbitrary unit | Relative concentration of OMEPRAZOLE released in the plasma [3, 8]: 8.5 arbitrary unit | Relative concentration of OMEPRAZOLE released in the plasma [3, 9]: 3.5 arbitrary unit | Relative concentration of OMEPRAZOLE released in the plasma [3, 10]: 2.5 arbitrary unit | Relative concentration of OMEPRAZOLE released in the plasma [3, 11]: 1.875 arbitrary unit | Relative concentration of OMEPRAZOLE released in the plasma [3, 12]: 0.625 arbitrary unit | Relative concentration of OMEPRAZOLE released in the plasma [3, 13]: 0.6 arbitrary unit | Relative concentration of OMEPRAZOLE released in the plasma [3, 14]: 0.6 arbitrary unit | Relative concentration of OMEPRAZOLE released in the plasma [3, 15]: 1.5 arbitrary unit | Relative concentration of OMEPRAZOLE released in the plasma [3, 16]: 0.5 arbitrary unit | Relative concentration of OMEPRAZOLE released in the plasma [3, 17]: 0.5 arbitrary unit | Relative concentration of OMEPRAZOLE released in the plasma [3, 18]: 0.2 arbitrary unit | Relative concentration of OMEPRAZOLE released in the plasma [3, 19]: 0.1 arbitrary unit | Relative concentration of OMEPRAZOLE released in the plasma [3, 20]: 0.05 arbitrary unit

Cc1c(OCC(F)(F)F)ccnc1C[S+]([O-])c1nc2ccccc2n1S(=O)(=O)c1ccc(OCC(N)=O)cc1 (stereo not shown) [Example 54]
% inhibition of gastric acid secretion [2, 5]: 46.9% | % inhibition of gastric acid secretion ([2]; between 4-7 hr after oral administration, listed as 2-(4-{[2-({[3-Methyl-4-(2,2,2-trifluoroethoxy)-2-pyridyl]methyl}sulfinyl) benzim)): 46.9%

1-(Pyridine-3-sulfonyl)-5-methoxy-2-[[(3,5-dimethyl-4-methoxy-2-pyridylmethyl]sulfinyl]-1H-benzimidazole and 1-(pyridine-3-sulfonyl-6-methoxy-2-[[(3,5-dimethyl-4-methoxy-2-pyridyl)methyl]sulfinyl]-1H-benzimidazole [Example 25]
% inhibition of gastric acid secretion [2, 22]: 61% and 61.3 ± 16.1%

2-{2-carbamoylmethoxy-4-[5-methoxy-2-((4-methoxy-3,5-dimethyl pyridin-2-yl)methylsulfinyl)benzimidazole-1-sulfonyl]phenoxy}acetamide and 2-{2-carbamoylmethoxy-4-[6-methoxy-2-((4-methoxy-3,5-dimethyl pyridin-2-yl)methylsulfinyl)benzimidazole-1-sulfonyl]phenoxy}acetamide [Example 74]
gastric acid secretion after administration to male rat (in words) ([2]; administrated to male rat): significantly and continuously inhibited | % inhibition of gastric acid secretion [2, 21]: 49.7 ± 3.7% | % inhibition of gastric acid secretion ([2]; between 5.5-8.5 hours after oral administration, 10 μmole/kg, histamine and carbachol stimulated, listed as 2-{2-carbamoylmethoxy-4-[5-methoxy-2-(4-methoxy-3,5-dimethyl pyridin-2-yl)metha): 49.7% | inhibition of histamine-stimulated acid output [4]: 64.2%

COCCCOc1ccnc(C[S+]([O-])c2nc3ccccc3[nH]2)c1C (stereo not shown) [RABEPRAZOLE, reference compound]
inhibition of gastric acid secretion [2]: 32% | % inhibition of gastric acid secretion [2, 5]: 32%

N-(2-{4-[5-methoxy-2-(4-methoxy-3,5-dimethyl pyridin-2-yl methylsulfinyl)benzimidazole-1-sulfonyl]-phenoxy}ethyl)-N,N,N-trimethyl ammonium trifluoromethanesulfonate and N-(2-{4-[6-methoxy-2-(4-methoxy-3,5-dimethyl pyridin-2-yl methylsulfinyl)benzimidazole-1-sulfonyl]-phenoxy}ethyl)-N,N,N-trimethyl ammonium trifluoromethanesulfonate [Example 73]
% inhibition of gastric acid secretion [2, 22]: 21.8 ± 11.7%

Cc1c(OCC(F)(F)F)ccnc1C[S+]([O-])c1nc2ccccc2[nH]1 (stereo not shown) [LANSOPRAZOLE, reference compound]
% inhibition of gastric acid secretion [2, 5]: 29% | % inhibition of gastric acid secretion ([2]; between 4-7 hr after oral administration, listed as LANOPRAZOLE): 29%

2-{4-[(5-methoxy-2-{[(3.5-dimethyl-4-methoxy-2-pyridyl)methyl]sulfinyl}benzimidazol-1-yl)sulfonyl]phenoxy}acetamide and 2-{4-[(6-methoxy-2-{[(3,5-dimethyl-4-methoxy-2-pyridyl)methyl]sulfinyl}benzimidazol-1-yl)sulfonyl]phenoxy}acetamide [Example 53]
% inhibition of gastric acid secretion [2, 22]: 65.2 ± 11.3%
